# How the values were obtained:
# [1] = system: L-MM3 murine breast cancer cells; assay: L-MM3 murine breast cancer in Balb/c mice, taxol and PLC, Experiment A (schedule A)
# Procedure: (§2) Cell cultures of L-MM3 murine breast cancer cells were used, cultured at 37° C. in plastic flasks in a humidified atmosphere with 5% CO^2. The cells were grown in DMEM supplemented with 10% FCS and in the presence of 2 mM L-glutamine and 80 μg/ml of gentamicin. The subconfluent cells were collected during the exponential growth phase using trypsin-EDTA and re-suspended in DMEM. They were then injected subcutaneously in female Balb/c mice weighing 20 g at a density of 4×10^5.
# (§3) The tumour was measured with a calliper three times a week as soon as it became palpable. The tumour mass is calculated on the basis of the measurements of the two dimensions (length and width), expressed in mm, according to the following formula: [formula]
# (§4) If we consider conventionally a tumour density equal to 1, the result is that the tumour volume is equal to (mm^3=mg).
# (§5) The agent is weighed, solubilised in the specific vehicle (12 mg/ml), and stored at +4° C., sheltered from the light. At the time of use, it is diluted 1:4 with saline solution in phosphate buffer (PBS, SIGMA) and injected.
# (§6) Cremophor is diluted 1:1 with ethanol and stored sheltered from the light. On the day of treatment it is diluted 1:4 with PBS.
# [2] = system: L-MM3 murine breast cancer cells; assay: L-MM3 murine breast cancer in Balb/c mice, taxol and PLC, Experiment B (schedule B)
# Procedure: as §2, §3, §4, §5, §6
# [3] = system: Hamsters; assay: Bleomycin-induced pulmonary toxicity in hamsters: lung histology; type: in vivo, hamster; conditions: pre-treatment/IT instillation; day 22
# Procedure: (§1) Hamsters weighing 120 g were treated with bleomycin (1 unit) by the intratracheal route (IT) or with an equivalent volume of saline. In addition, the animals were pre-treated with ALC (200 mg/kg) or saline intraperitoneally just before the instillation of bleomycin, followed by daily injections for 1 week. The animals were allowed 3 weeks to recover prior to taking the tissue samples. At the time tissue samples were taken (day 22), one lung of each animal was prepared for histological investigation and the other lung for quantitative determination of hydroxyproline.
# The lungs were fixed by insufflation at 20 cm of H2O ex vivo with 10% formaldehyde in PBS (pH 7), embedded in paraffin, sectioned and stained with haematoxylin/eosin. Sections with similar orientation from the portion of the pulmonary lobe—upper, middle and lower, respectively—were examined to verify the presence and degree of inflammatory infiltrate, oedema and interstitial and intra-alveolar fibrosis.
# [4] = system: Hamsters; assay: Bleomycin-induced pulmonary toxicity in hamsters: lung hydroxyproline content; type: in vivo, hamster; conditions: pre-treatment i.p. (ALC 200 mg/kg or saline, daily 1 week)/intratracheal instillation (bleomycin 1 unit or saline); day 22
# Procedure: as §1
# The hydroxyproline content (one of the main constituents of collagen) was measured using the known Woessner method. Lung samples were homogenised, hydrolysed with NaOH, and then left to oxidise before adding Erlich aldehyde reagent. Duplicate aliquots of each sample were assayed by spectrophotometry and compared with a standard calibration curve obtained with purified hydroxyproline. The hydroxyproline content (HYP) is expressed as mg/lung.
compound,measurement,setting,value
"CCC(=O)O[C@H](CC(=O)[O-])C[N+](C)(C)C [PLC, propionyl L-carnitine]","Animals with tumours/total number of animals, Day 22",[1],6/12
same,"Animals with tumours/total number of animals, Day 25",[1],9/12
same,"Animals with tumours/total number of animals, Day 28",[1],11/12
same,"Animals with tumours/total number of animals, Day 36",[1],12/12
same,"Animals with tumours/total number of animals, Day 46",[1],12/12
same,"Tumour size, Day 22",[1],0.6 ± 0.3
same,"Tumour size, Day 25",[1],1.2 ± 0.38
same,"Tumour size, Day 28",[1],3 ± 0.4
same,"Tumour size, Day 36",[1],9.5 ± 0.8
same,"Tumour size, Day 46",[1],15 ± 1.1
same,"Tumour size, Day 0",[1]; day of inoculation,0
same,"Animals with tumours/total number of animals, Day 19","[1]; taxol 30 mg/kg i.p. days 15,17,19,21, PLC 100 mg/kg s.c. days 12-24",4/12
same,"Animals with tumours/total animals, Day 45",[2],8/10
same,"Animals with tumours/total animals, Day 59",[2],8/10
same,"Tumour size, Day 26",[2],0.4 ± 0.3
same,"Tumour size, Day 31",[2],0.5 ± 0.3
same,"Tumour size, Day 37",[2],1.3 ± 0.6
same,"Tumour size, Day 41",[2],2.2 ± 1.0
same,"Tumour size, Day 45",[2],3.9 ± 1.2
same,"Tumour size, Day 53",[2],5.6 ± 1.4
same,"Tumour size, Day 59",[2],8 ± 2.2
same,"Tumour size, Day 0",[2]; day of inoculation,0
same,"Animals with tumours/total animals, Day 31","[2]; taxol 30 mg/kg i.p. days 8,10,12,14, PLC 100 mg/kg s.c. to day 59",3/10
"bleomycin [Saline/bleomycin, reference compound]",lung histology (in words),[3],"dense fibrosis, alveolar atelectasis and oedema"
same,hydroxyproline content (HYP),[4],1.831 mg/lung

# From patent US6610699B2, “Use of L-carnitine and its alkanoyl derivatives in the preparation of medicaments with anticancer activity” (Sigma-Tau Industrie Farmaceutiche Riunite S.p.A., priority 1998, dated 2003)
